Test results reported in publication PMC6811774, “Potent, selective, and subunit‐dependent activation of TRPC5 channels by a xanthine derivative” (British Journal of Pharmacology, 2019).
Several values for one entry are separate records, joined by “and”; a condition that tells them apart may be missing. Equal values may be shown once. Read-outs that look alike come from different tables or passages of the source.

Target: T1, TRPC5:C5 channels (hTRPC5) (Homo sapiens, UniProt Q9UL62)
T1 construct: expressed in transfected cells
T1 sequence (Q9UL62 1-973): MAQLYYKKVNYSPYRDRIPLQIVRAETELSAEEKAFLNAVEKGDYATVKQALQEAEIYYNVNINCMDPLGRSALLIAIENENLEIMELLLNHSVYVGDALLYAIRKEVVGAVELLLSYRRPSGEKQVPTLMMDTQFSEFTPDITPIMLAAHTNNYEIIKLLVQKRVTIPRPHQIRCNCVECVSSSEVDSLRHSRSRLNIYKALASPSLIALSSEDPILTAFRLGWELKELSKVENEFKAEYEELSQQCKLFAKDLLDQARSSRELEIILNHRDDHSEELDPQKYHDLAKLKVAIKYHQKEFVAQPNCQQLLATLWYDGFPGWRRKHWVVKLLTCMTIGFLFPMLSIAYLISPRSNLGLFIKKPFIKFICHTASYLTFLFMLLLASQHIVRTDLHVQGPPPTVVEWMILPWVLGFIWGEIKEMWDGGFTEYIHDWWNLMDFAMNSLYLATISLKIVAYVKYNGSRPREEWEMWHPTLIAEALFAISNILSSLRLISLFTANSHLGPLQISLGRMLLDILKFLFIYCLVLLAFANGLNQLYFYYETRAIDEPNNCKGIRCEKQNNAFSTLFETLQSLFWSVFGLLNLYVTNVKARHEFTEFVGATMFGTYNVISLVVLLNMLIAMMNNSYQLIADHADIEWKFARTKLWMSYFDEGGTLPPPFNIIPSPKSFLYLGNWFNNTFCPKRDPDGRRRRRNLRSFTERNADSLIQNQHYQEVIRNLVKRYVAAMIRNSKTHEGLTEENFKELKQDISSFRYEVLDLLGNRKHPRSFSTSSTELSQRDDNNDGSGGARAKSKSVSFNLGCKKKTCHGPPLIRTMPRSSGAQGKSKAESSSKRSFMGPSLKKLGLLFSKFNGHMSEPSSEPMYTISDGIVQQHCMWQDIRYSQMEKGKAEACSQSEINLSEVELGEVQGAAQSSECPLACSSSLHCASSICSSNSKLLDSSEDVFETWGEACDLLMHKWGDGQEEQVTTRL
Assay: [Ca2+]i measurement (Fura-2, FlexStation) in (Tet+) HEK T-REx cells expressing hTRPC5
Assay type: cell-based
Protocol: HEK T‐REx™ cell line was transfected with TRPC5‐SYFP2 or TRPC4‐SYFP2 using FuGENE® HD transfection reagent. After 48 hr, cells were put under antibiotic selection using 400 μg·ml^−1 zeocin and 10 μg·ml^−1 blasticidin S (Invivogen, San Diego, California, USA). Medium changes were carried out regularly to remove dead cells. HEK T‐REx cells expressing tetracycline‐inducible human TRPC5, TRPC4–C1, and TRPC5–C1 were created as described previously (Akbulut et al., 2015; Ludlow et al., 2017; Rubaiy, Ludlow, Henrot, et al., 2017). TRPC5–C1 and TRPC4–C1 concatemers allow expression of functional channels with defined 2:2 stoichiometry that display ion permeability and current–voltage relationships distinct from those of homomeric TRPC4:C4 or TRPC5:C5 channels and consistent with those obtained upon co‐expression of TRPC1 with TRPC4 or TRPC5 (Ludlow et al., 2017; Rubaiy, Ludlow, Bon, & Beech, 2017; Rubaiy, Ludlow, Henrot, et al., 2017). Cells were cultured in DMEM‐F12 GlutaMAX (Invitrogen, Paisley, UK) containing 10% FBS (Sigma‐Aldrich, Gillingham, UK), with the addition of blasticidin (10 μg·ml^−1) and zeocin (400 μg·ml^−1) to maintain the stable incorporation of the tetracycline repressor and the channel of interest, respectively. Expression of proteins was induced by the addition of tetracycline (1 μg·ml^−1, 24 hr). Cells were maintained in a humidified incubator with 5% CO2 at 37°C. HEK 293 cells stably expressing tetracycline‐regulated human http://www.guidetopharmacology.org/GRAC/ObjectDisplayForward?objectId=494 were prepared similarly and have also been described previously (McHugh, Flemming, Xu, Perraud, & Beech, 2003). For experiments using transient co‐expression of TRPC1 and TRPC5, HEK cells at 40–60% confluency were transfected with pIRES2‐AcGFP1 and pIRES2‐DsRed‐Express2 plasmids containing human TRPC1 and TRPC5, respectively, using Lipofectamine 3000 (ThermoFisher Scientific, Yokohama, Japan). All experiments using transient expression were performed within 48 hr after transfection. A498 cells were cultured in Minimum Essential Medium containing Earle's salts (ThermoFisher Scientific, Loughborough, UK), supplemented with 10% FBS and penicillin–streptomycin (100 units per ml^−1, 100 μg·ml^−1; ThermoFisher Scientific, Loughborough, UK). CHO cells stably expressing http://www.guidetopharmacology.org/GRAC/ObjectDisplayForward?objectId=510 were maintained in Ham's Nutrient Mixture F12 (ThermoFisher Scientific, Loughborough, UK) supplemented with 10% FBS, penicillin–streptomycin, and 1 mg·ml^−1 G418 (InvivoGen, San Diego, California, USA). For experiments using hTRPC3 and hTRPC6, WT HEK 293 cells were transfected with hTRPC3 (Naylor et al., 2016) or hTRPC6 (cloned into pcDNA3) using jetPRIME® transfection reagent (VWR, Lutterworth, UK). […]

SMILES: Cn1c(=O)n(CCCO)c(=O)c2c1nc(Oc1ccc(Cl)c(OC(F)(F)F)c1)n2Cc1ccc(Cl)cc1 [AM237]
- Concentration leading to a sustained increase in [Ca2+]i (cells overexpressing TRPC5 or TRPC5-SYFP2): ≥ 3 nM
- EC50 (hTRPC5, response at 250–295 s vs baseline, read-out: EC50, activation (increase in [Ca2+]i)): 20 nM
- Hill slope, activation (hTRPC5 concentration–response curve): 1.7
- EC50 (range over TRPC5 and TRPC5-SYFP2 experiments, read-out: EC50, TRPC5:C5 activation in [Ca2+]i assay (summary range)): 15 to 20 nM and 10 to 20 nM
